# Like-named read-outs stand apart in the source and are kept apart here.
# How the values were obtained:
# [1] = cited from earlier work
# Male DBA/2J mice [2] = test: Prepulse inhibition (PPI) model, Compound A on a subefficacious dose of risperidone; type: in vivo, mouse; conditions: FIG. 2
# Description: Animals: Male DBA/2J mice (Jackson Labs AX9 facility, Bar Harbor, Me., USA) at age 6-8 weeks old were used. They were housed under standard facility conditions in groups of eight on a 12 h light/dark cycle (lights on at 0600 h) with ad libitum access to food and water. Chemicals: 2-{4′-[(3aR,6aR)-5-Methylhexahydropyrrolo[3,4-b]pyrrol-1(2H)-yl]-1,1′-biphenyl-4-yl}pyridazin-3(2H)-one was prepared at Abbott Laboratories; risperidone (3-[2-[4-(6-fluoro-1,2-benzisoxazol-3-yl)-1-piperidinyl]ethyl]-6,7,8,9-tetrahydro-2-methyl-4H-pyridol[1,2-a]pyrimidin-4-one, MW 410.5) was obtained from ICN Biomedicals Inc. (Aurora, Ohio, USA). […] Experimental Procedure: Startle response and PPI were measured using startle chambers from Hamilton Kinder (Poway, Calif., USA). […] In the startle alone trials, the amount of PPI was calculated as a percentage score for each acoustic prepulse trial type using (typically) the formula: […]. Statistics: Data were analyzed using a one-way ANOVA. All post hoc significance was determined using Dunnett's multiple comparison test (p<0.05 was regarded as significance). […]
# Statistics: Data were analyzed using a one-way ANOVA. All post hoc significance was determined using Dunnett's multiple comparison test (p<0.05 was regarded as significance).
# Male Sprague Dawley rats = test: Catalepsy (bar test), Compound A in combination with risperidone; type: in vivo, rat; conditions: Compound A 0.1 or 1.0 mg/kg i.p. 10 min prior to risperidone 2.5 mg/kg i.p.; total catalepsy over 60-240 min; FIG. 3
# Description: Animals: Male Sprague Dawley rats (CRL: CD (SD), Charles River Laboratories, Omaha, Nebr., USA) weighing 300-325 g were used for the experiment. They were housed under standard conditions in groups of 4 rats on a 12 h light/dark cycle (lights on at 0600 h) with ad libitum access to food and water. Preparation of Compounds: 2-{4′-[(3aR,6aR)-5-Methylhexahydropyrrolo[3,4-b]pyrrol-1(2H)-yl]-1,1′-biphenyl-4-yl}pyridazin-3(2H)-one (Compound A) and risperidone were solubilized as described above, and were administered in solution in a volume of 1.0 ml/kg body weight. Experimental Procedure: Rats were handled and habituated to the testing room before starting. […] The degree of catalepsy was measured by gently placing both forepaws over a metal bar (1.1 cm. diameter suspended 8 cm. above the table top). The time in seconds until the rat took both paws off the bar was recorded, with a maximum cut-off of 300 seconds. […] At least 5 trials were attempted on each rat with 5 seconds used as a low-end cut-off for catalepsy (time scored as zero). For catalepsy times between 5-15 seconds, the highest time of 5 trials was recorded. Alternately, any catalepsy trial time that was greater than 15 seconds (up to 300 seconds) was recorded. Statistics: Data for the 4 times points were summed across the session, and the total catalepsy scores were analyzed using a one-way analysis of variance (ANOVA). […]
# Male DBA/2J mice [3] = test: Prepulse inhibition (PPI) model, Compound A alone; type: in vivo, mouse; conditions: Compound A alone at 0.01, 0.1 and 1.0 mg/kg i.p., 30 min before testing; FIG. 1
# Source text: Dysfunctions of sensory gating and information processing have been putatively associated with clinical features such as perpetual aberrations, hallucinations and distraction and been considered as potential precursors of sensory overload, cognitive fragmentation and disorganization. Among the physiological measures, one approach has involved the startle reflex with the prepulse inhibition (PPI) paradigm. […] PPI refers to a reduction in the acoustic startle reflex to a loud noise when the loud noise is preceded by a weak auditory stimulus. At short lead intervals, this has the effect of markedly reducing or gating the amplitude of the startle response and increasing its latency. Disruption of PPI occurs with agonists of dopamine and serotonin, and with glutamate/N-methyl D aspartate (NMDA) receptor antagonists, or can be induced by genetic (e.g., DBA2 mouse strain) and experimental manipulations (e.g., rearing rats in isolation, neurotoxic lesions, or other methods). […] (Olivier B., et al., Psychopharmacology (2001) vol. 156:284-290; Ouagazzal A-M., Psychopharmacology (2001) vol. 156:273-283; Simosky J. K., Psychopharmacology (2003) vol. 165:386-396). […]
# Animals: Male DBA/2J mice (Jackson Labs AX9 facility, Bar Harbor, Me., USA) at age 6-8 weeks old were used. […] Experimental Procedure: Startle response and PPI were measured using startle chambers from Hamilton Kinder (Poway, Calif., USA). […]
# [4] = clinical use, Table 1, hyperprolactinaemia
# [5] = clinical use, Table 1, sexual dysfunction
structure (smiles),measurement,setting,value
"CN1CCN(C2=Nc3cc(Cl)ccc3Nc3ccccc32)CC1 [Clozapine, 8-chloro-11-(4-methyl-1-piperazinyl)-5H-dibenzo[b,e][1,4]diazepine]",Dose of Increased Side Effect Risk (low risk for seizures),[1]; Table 2,<300 mg/day
same,Dose of Increased Side Effect Risk (moderate risk for seizures),[1]; Table 2,300 to 599 mg/day
"Cc1nc2n(c(=O)c1CCN1CCC(c3noc4cc(F)ccc34)CC1)CCCC2 [Risperidone, 3-[2-[4-(6-fluoro-1,2-benzisoxazol-3-yl)piperidino]ethyl]-2-methyl-6,7,8,9-tetrahydro-4H-pyrido-[1,2-a]pyrimidin-4-one]",Dose of Increased Side Effect Risk (EPS risk),[1]; Table 2,≧6 mg/day
same,Other Dose Related Side Effects,[1]; [4],hyper-
same,Other Dose Related Side Effects,[1]; [5],sexual
"O=C1Cc2cc(CCN3CCN(c4nsc5ccccc45)CC3)c(Cl)cc2N1 [Ziprasidone, 5-[2-[4-(1,2-benzoisothiazol-3-yl)-1-piperazinyl]ethyl]-6-chloro-1,3-dihydro-2H-indol-2-one]",Dose of Increased Side Effect Risk (EPS risk),[1]; Table 2,>80 mg/day
same,EPS risk: dose of augmented risk,"[1]; clinical use, Table 1",risk >80 mg/kg/day
O=C1CCc2ccc(OCCCCN3CCN(c4cccc(Cl)c4Cl)CC3)cc2N1 [Arpiprazole],"Dose of Increased Side Effect Risk (somnolence), in words",[1]; Table 2,dose dependent
same,Other Dose Related Side Effects,"[1]; clinical use, Table 1",somnolence
"CN1C[C@H]2CCN(c3ccc(-c4ccc(-n5ncccc5=O)cc4)cc3)[C@H]2C1 [Compound A, 2-{4′-[(3aR,6aR)-5-methylhexahydropyrrolo[3,4-b]pyrrol-1(2H)-yl]-1,1′-biphenyl-4-yl}pyridazin-3(2H)-one]",efficacy of risperidone (0.1 mg/kg) in PPI in combination with 0.1 mg/kg Compound A,"Male DBA/2J mice [2]; 0.1 mg/kg Compound A + 0.1 mg/kg risperidone, comparable to 1.0 mg/kg risperidone",attained maximal efficacy
same,efficacy of risperidone (0.1 mg/kg) in PPI in the presence of Compound A,"Male DBA/2J mice [2]; Compound A 0.01, 0.1 or 1.0 mg/kg i.p. 35 min, risperidone 0.1 mg/kg 25 min prior to testing",more efficacious
same,cataleptic behavior of risperidone when administered in combination,Male Sprague Dawley rats,did not significantly alter cataleptic behavior
same,PPI responding,Male DBA/2J mice [3],did not significantly alter PPI responding
"O=C(CCCN1CCC(O)(c2ccc(Cl)cc2)CC1)c1ccc(F)cc1 [Haloperidol, 4-(4-chlorophenyl)-1-[4-(4-fluorophenyl)-4-oxobutyl]-4 piperidinyl]",Dose of Increased Side Effect Risk,"[1]; Table 2, risk for EPS",~3 mg
same,Other Dose Related Side Effects,[1]; [4],hyper-
same,Other Dose Related Side Effects,[1]; [5],sexual
